From patent publication US11780845B2 (Relay Therapeutics, Inc., priority 2019, dated 2023)

Key:
FGFR2 = FGFR2 (Homo sapiens (Human), UniProt P21802); assay: Biochemical FGFR2 Caliper assay
SNU-16 = assay: Cell SNU-16 assay; assay type: cell-based
[1] = Homo sapiens, SNU-16, SNU-16 cells

FGFR2, sequence (P21802 22-821): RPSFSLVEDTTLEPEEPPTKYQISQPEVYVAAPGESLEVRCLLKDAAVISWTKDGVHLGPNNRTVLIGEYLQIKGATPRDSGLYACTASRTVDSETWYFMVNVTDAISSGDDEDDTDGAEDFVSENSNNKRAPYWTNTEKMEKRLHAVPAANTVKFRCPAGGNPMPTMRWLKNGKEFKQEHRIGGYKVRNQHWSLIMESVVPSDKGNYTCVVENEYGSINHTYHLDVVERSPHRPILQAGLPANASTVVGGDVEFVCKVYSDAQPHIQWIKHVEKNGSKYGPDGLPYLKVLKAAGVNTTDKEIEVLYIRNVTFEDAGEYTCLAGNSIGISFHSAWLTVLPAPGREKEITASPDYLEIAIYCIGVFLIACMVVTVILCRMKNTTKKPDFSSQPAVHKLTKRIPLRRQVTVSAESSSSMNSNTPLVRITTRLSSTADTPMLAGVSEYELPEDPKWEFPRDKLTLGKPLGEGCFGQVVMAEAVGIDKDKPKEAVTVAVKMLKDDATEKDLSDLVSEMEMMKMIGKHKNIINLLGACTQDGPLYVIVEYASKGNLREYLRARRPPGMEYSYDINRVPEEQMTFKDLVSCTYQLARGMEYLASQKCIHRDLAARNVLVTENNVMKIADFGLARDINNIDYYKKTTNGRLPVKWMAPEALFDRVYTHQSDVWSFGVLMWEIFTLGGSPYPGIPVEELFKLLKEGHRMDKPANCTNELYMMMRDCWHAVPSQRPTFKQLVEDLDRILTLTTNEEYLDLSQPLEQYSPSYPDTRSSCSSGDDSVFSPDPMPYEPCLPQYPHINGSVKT

| SMILES | IC50 (FGFR2) [µM] | IC50 (SNU-16; [1]) [µM] | IC50 (SNU-16; SNU-16 cells) [µM] |
| --- | --- | --- | --- |
| C=C(C)C(=O)Nc1ccc(-c2c(C3=CC[C@@H](S(=O)(=O)N4CCCC4)CC3)c3c(N)ncnc3n2C)c(C)c1 [Example 1115] | 1 to 100 | 1 to 100 | – |
| C=C(C)C(=O)Nc1ccc(-c2c(C3=CC[C@H](S(=O)(=O)N4CCCC4)CC3)c3c(N)ncnc3n2C)c(C)c1 [Example 1116] | 0.1 to 0.25 | ≤ 0.1 | – |
| C#Cc1cc(C)c(-c2c(-c3ccc(Oc4nccc(C)n4)c(F)c3)c3c(N)ncnc3n2C)cn1 [Example 1119] | 1 to 100 | – | 0.25 to 1 |
| C=CC(=O)Nc1ccc(-c2c(-c3ccc(O)cc3)c3c(N)ncnc3n2C)cc1 [Example 1120] | < 0.1 | ≤ 0.1 | – |
| Cc1cccc(Oc2ccc(-c3c(-c4cccc(NC#N)c4)n(C)c4ncnc(N)c34)cc2)n1 [Example 1121] | < 0.1 | ≤ 0.1 | – |
| C=C(C)C(=O)Nc1ccc(-c2c(-c3ccc(-c4nnc(C)o4)cc3)c3c(N)ncnc3n2C)cc1 [Example 1123] | 1 to 100 | 0.25 to 1 | – |
| C=C(C)C(=O)Nc1ccc(-c2c(-c3ccc(-c4ccn(C)n4)nc3)c3c(N)ncnc3n2C)cc1 [Example 1124] | 1 to 100 | 0.25 to 1 | – |
| C=C(C)C(=O)Nc1ccc(-c2c(-c3ccc(Oc4nccc(C)n4)cc3)c3c(C)ncnc3n2C)c(C)c1 [Example 1125] | 1 to 100 | 1 to 100 | – |
| C=C(C)C(=O)Nc1ccc(-c2c(-c3ccc(Oc4nccc(C)n4)c(F)c3)c3c(C)ncnc3n2C)c(C)c1 [Example 1126] | < 0.1 | ≤ 0.1 | – |
| C=CC(=O)Nc1ccc(-c2c(-c3cn[nH]c3)c3c(N)ncnc3n2C)cc1 [Example 1128] | < 0.1 | ≤ 0.1 | – |
| C#Cc1cc(C)c(-c2[nH]c3ncnc(N)c3c2-c2ccc(Oc3nccc(C)n3)cc2)cn1 [Example 1130] | 0.25 to 1 | 0.25 to 1 | – |
| C=C1C(=O)N(c2ccc(-c3c(-c4ccc(Oc5nccc(C)n5)cc4)c4c(N)ncnc4n3C)cc2)C[C@@H]1C [Example 1133] | 0.1 to 0.25 | 0.1 to 0.25 | – |
| C=C1C(=O)N(c2ccc(-c3c(-c4ccc(Oc5nccc(C)n5)cc4)c4c(N)ncnc4n3C)cc2)C[C@H]1C [Example 1135] | 0.25 to 1 | 0.1 to 0.25 | – |
| C=CC(=O)Nc1ccc(-c2c(-c3cc4ccccc4[nH]3)c3c(N)ncnc3n2C)cc1 [Example 1138] | < 0.1 | ≤ 0.1 | – |
| C#Cc1cc(C)c(-c2c(-c3ccc(C(=O)NC4CCC4)c(OC)c3)c3c(N)ncnc3n2C)cn1 [Example 1143] | 1 to 100 | 0.25 to 1 | – |
| C#Cc1ncc(-c2c(-c3ccc(Oc4nccc(C)n4)c(F)c3)c3c(N)ncnc3n2C)c(C)n1 [Example 1153] | < 0.1 | 0.1 to 0.25 | – |
| C=CC(=O)Nc1ccc(-c2c(-c3ccc(=O)[nH]c3)c3c(N)ncnc3n2C)cc1 [Example 1158] | < 0.1 | ≤ 0.1 | – |
| C#Cc1cc(C)c(-c2c(-c3ccc(OC(C)C)cc3)c3c(N)ncnc3n2C)cn1 [Example 1160] | < 0.1 | ≤ 0.1 | – |

| SMILES | IC50 (FGFR2) [µM] | IC50 (SNU-16; [1]) [µM] | IC50 (SNU-16; SNU-16 cells) [µM] |
| --- | --- | --- | --- |
| C=C(C)C(=O)Nc1cc(-c2c(-c3ccc(Oc4nccc(C)n4)c(F)c3)c3c(N)ncnc3n2C)n(C)n1 [Example 1161] | < 0.1 | ≤ 0.1 | – |
| C#Cc1cc(C)c(-c2c(-c3ccc(Oc4nccc(C)n4)c(F)c3)c3c(C)ncnc3n2C)cn1 [Example 1163] | < 0.1 | ≤ 0.1 | – |
| C=C(C)C(=O)Nc1cc(C)c(-c2c(-c3ccc(Oc4nccc(C)n4)cc3)c3c(N)ncnc3n2C)c(C)c1 [Example 1165] | < 0.1 | ≤ 0.1 | – |
| C#Cc1ccc(-c2c(-c3ccc(Oc4nccc(C)n4)c(F)c3)c3c(N)ncnc3n2C)c(C)n1 [Example 1168] | < 0.1 | 1 to 100 | – |
| C=C(C)c1nc(-c2ccc(-c3c(-c4ccccc4)c4c(N)ncnc4n3C)cc2)no1 [Example 1172] | < 0.1 | ≤ 0.1 | – |
| C#Cc1c(F)cc(-c2c(-c3ccc(Oc4nccc(C)n4)cc3)c3c(N)ncnc3n2C)cc1F [Example 1177] | < 0.1 | ≤ 0.1 | – |
| C#Cc1ncc(-c2c(C3=CC[C@@H](C(=O)N4CCCC4)CC3)c3c(N)ncnc3n2C)c(C)n1 [Example 1180] | < 0.1 | ≤ 0.1 | – |
| C#Cc1cnc(-c2c(-c3ccc(Oc4nccc(C)n4)cc3)c3c(N)ncnc3n2C)cn1 [Example 1181] | < 0.1 | ≤ 0.1 | – |
| C#Cc1ncc(-c2c(-c3ccc(C(=O)N4CCC[C@@H]4C#C)cc3)c3c(N)ncnc3n2C)c(C)n1 [Example 1182] | < 0.1 | ≤ 0.1 | – |
| C#Cc1cc(C)c(-c2c(-c3ccc(C(=O)N4CCC[C@H]4C#C)cc3)c3c(N)ncnc3n2C)cn1 [Example 1185] | < 0.1 | ≤ 0.1 | – |
| C#Cc1ncc(-c2c(-c3ccc(Oc4nccc(C)n4)cc3)c3c(N)ncnc3n2C)cc1C#N [Example 1188] | < 0.1 | ≤ 0.1 | – |
| C=C(C)C(=O)Nc1ccc(-c2c(C3=CCN(Cc4ccccc4)CC3)c3c(N)ncnc3n2C)cc1 [Example 1189] | < 0.1 | ≤ 0.1 | – |
| C=Cc1ccc(-c2c(-c3ccccc3)c3c(N)ncnc3n2C)cn1 [Example 1194] | 1 to 100 | 1 to 100 | – |
| C#Cc1ccc(-c2c(-c3ccc(Oc4nccc(C)n4)c(F)c3)c3c(N)ncnc3n2C)c(F)n1 [Example 1200] | 1 to 100 | 1 to 100 | – |
| C#Cc1nc2cc(-c3c(-c4ccc(Oc5nccc(C)n5)c(F)c4)c4c(N)ncnc4n3C)ccc2[nH]1 [Example 1202] | 1 to 100 | 0.25 to 1 | – |
| C#Cc1cc(C)c(-c2c(-c3ccc(Oc4cccc(C)n4)c(F)c3)c3c(N)ncnc3n2C)cn1 [Example 1203] | < 0.1 | ≤ 0.1 | – |
| Cc1ccnc(Oc2ccc(-c3c(-c4ccc(C)nc4C)n(C)c4ncnc(N)c34)cc2F)n1 [Example 1206] | 0.25 to 1 | 0.25 to 1 | – |

Results, then the compound that gave them:

| IC50 (FGFR2) [µM] | IC50 (SNU-16; [1]) [µM] | IC50 (SNU-16; SNU-16 cells) [µM] | SMILES |
| --- | --- | --- | --- |
| 0.25 to 1 | ≤ 0.1 | – | CC1=C[C@@H](C)N(c2ccc(-c3c(-c4ccc(Oc5nccc(C)n5)cc4)c4c(N)ncnc4n3C)cc2)C1=O [Example 1114] |
| 0.1 to 0.25 | – | ≤ 0.1 | C#Cc1ncc(-c2c(-c3ccc(Oc4nccc(C)n4)cc3)c3c(N)ncnc3n2C)cn1 [Example 1117] |
| < 0.1 | ≤ 0.1 | – | CC1=C[C@H](C)N(c2ccc(-c3c(-c4ccc(Oc5nccc(C)n5)cc4)c4c(N)ncnc4n3C)cc2)C1=O [Example 1118] |
| < 0.1 | ≤ 0.1 | – | C=C1C[C@H](C)N(c2ccc(-c3c(-c4ccc(Oc5nccc(C)n5)cc4)c4c(N)ncnc4n3C)cc2)C1=O [Example 1131] |
| 1 to 100 | 0.25 to 1 | – | C=CC(=C)Nc1ccc(-c2c(-c3cnn(C)c3)c3c(N)ncnc3n2C)c(C)c1 [Example 1132] |
| < 0.1 | ≤ 0.1 | – | C#Cc1cc(C)c(-c2c(-c3ccc(Oc4nccc(C)n4)cc3)c3c(N)ncnc3n2C)nn1 [Example 1136] |
| 0.1 to 0.25 | ≤ 0.1 | – | C#Cc1cc(C)c(-c2c(-c3cnn(C)c3)c3c(N)ncnc3n2C)cn1 [Example 1144] |
| 1 to 100 | 1 to 100 | – | C=C(C)C(=O)Nc1ccc(-c2c(-c3ccc(-c4noc(C)n4)cc3)c3c(N)ncnc3n2C)cc1 [Example 1145] |
| < 0.1 | ≤ 0.1 | – | C=CC(=O)Nc1ccc(-c2c(-c3ccc4[nH]ccc4c3)c3c(N)ncnc3n2C)cc1 [Example 1148] |
| 0.1 to 0.25 | 0.25 to 1 | – | C=C(C)C(=O)Nc1ccc(-c2c(-c3ccc(-n4cc(C)cn4)nc3)c3c(N)ncnc3n2C(C)C)cc1 [Example 1151] |
| < 0.1 | ≤ 0.1 | – | C=CC(=O)Nc1ccc(-c2c(-c3cc[nH]c3)c3c(N)ncnc3n2C)cc1 [Example 1154] |
| < 0.1 | ≤ 0.1 | – | C=C(C)C(=O)Nc1ccc(-c2c(-c3ccc(-c4ccnn4C)nc3)c3c(N)ncnc3n2C)cc1 [Example 1155] |
| 0.25 to 1 | 0.25 to 1 | – | C=CC(=O)Nc1ccc(-c2c(-c3c[nH]c4ccccc34)c3c(N)ncnc3n2C)cc1 [Example 1157] |
| < 0.1 | ≤ 0.1 | – | CC#Cc1ncc(-c2c(-c3ccc(Oc4nccc(C)n4)cc3)c3c(N)ncnc3n2C)c(C)n1 [Example 1162] |
| < 0.1 | ≤ 0.1 | – | C#Cc1ncc(-c2c(-c3ccc(Oc4nccc(C)n4)cc3)c3c(N)ncnc3n2C)c(C)c1F [Example 1164] |
| < 0.1 | ≤ 0.1 | – | C#Cc1nc2ccc(-c3c(-c4ccc(Oc5nccc(C)n5)cc4)c4c(N)ncnc4n3C)cc2o1 [Example 1167] |
| < 0.1 | ≤ 0.1 | – | C#Cc1ncc(-c2c(-c3ccc(Oc4nccc(C)n4)c(F)c3)c3c(C)ncnc3n2C)c(C)n1 [Example 1170] |
| < 0.1 | ≤ 0.1 | – | C#Cc1nc(C)c(-c2c(-c3ccc(Oc4nccc(C)n4)cc3)c3c(N)ncnc3n2C)cc1F [Example 1171] |
| 0.1 to 0.25 | ≤ 0.1 | – | C#Cc1ccc(-c2c(-c3ccc(Oc4nccc(C)n4)cc3)c3c(N)ncnc3n2C)cc1F [Example 1175] |
| < 0.1 | ≤ 0.1 | – | C#Cc1ccc(-c2c(-c3ccc(Oc4nccc(C)n4)c(F)c3)c3cncnc3n2C)c(C)n1 [Example 1183] |
| 1 to 100 | 1 to 100 | – | C#Cc1ncc(-c2c(-c3ccc(C(=O)N4CCC[C@H]4C#C)cc3)c3c(N)ncnc3n2C)c(C)n1 [Example 1184] |
| < 0.1 | ≤ 0.1 | – | C=C1CCN(c2ccc(-c3c(-c4ccc(Oc5nccc(C)n5)c(F)c4)c4c(C)ncnc4n3C)c(C)c2)C1=O [Example 1186] |
| < 0.1 | ≤ 0.1 | – | C#Cc1cc(C)c(-c2c(-c3ccc(C(=O)N4CCC[C@@H]4C#C)cc3)c3c(N)ncnc3n2C)cn1 [Example 1187] |
| 0.25 to 1 | 0.25 to 1 | – | C#Cc1cc(-c2c(-c3ccccc3)c3c(N)ncnc3n2C)ccn1 [Example 1193] |
| < 0.1 | ≤ 0.1 | – | C#Cc1ccc(-c2c(-c3ccc(Oc4nccc(C)n4)cc3F)c3c(N)ncnc3n2C)c(C)n1 [Example 1197] |
| < 0.1 | ≤ 0.1 | – | C#Cc1cc(F)c(-c2c(-c3ccc(Oc4nccc(C)n4)c(F)c3)c3c(N)ncnc3n2C)cn1 [Example 1198] |
